Source: US6555582B1, “Eye treatments using synthetic thyroid hormone compositions” (The Regents of the University of California, priority 1996, dated 2003)
Read-outs that look alike come from different tables or passages of the source.

How the values were obtained:
HTM cells [1] = conditions: for reduction in HA secretion: T3-supplemented vs T3-stripped media (No Tx)
HTM cells [2] = conditions: 10^−7 M, non-confluent cultures, serum-free, day 10, vs controls lacking T3
CD44E = conditions: HTM cells exposed to supplemental T3 for 18 hours
Method: (§1) To investigate whether CD44 receptors are expressed by HTM cells, four CD44 isoforms can be measured using RT-PCR analysis with probes for CD44s, CD44E, CD44-v1 and CD44-v3. […] RNA was made using RNA TrackTM (Biotecx, Friendswood, Tex.). The RNA was used as a template for the first strand synthesis of cDNA in a reaction mixture containing 1000 U Moloney Murine Leukemia Virus Reverse Transcriptase (BRL, Gaithersburg, Md.), 50 mM random hexamer primer, 50 mM Tris-HCl (pH 8.3), 75 mM KCl, 10 mM dithiothreitol, 3 mM MgC12, 0.5 mM each of dGTP, dATP, dTTP and dCTP in 60 ul total volume. The cDNA reactions were carried out at 37° C. for 90 min, and then diluted 1:3 or 1:7 in water, pretreated with DEPC. Oligonucleotide primers were diluted to 40 μM in water.
(§2) For RT-PCR, a modified hot start method was used. A quantity of 3-5 μl of cDNA was added to 30 μl of a master mix containing 0.8 μl of each primer, 17 mM Tris-HCI (pH 8.3) and 80 mM KCI. Water was added to the cDNA reactions to a final volume of 40 μl. All reactions were overlaid with light mineral oil and heated to 99° C. After 10 min the reactions were cooled to 94° C. and a 10 μl volume containing 7 mM MgCI2, 1 mM each of dATP, dTTP, dGTP and dCTP, and 1.2 U Taq Polymerase (Perkin-Elmer Cetus, Branchburg, N.J.) was added directly through the oil overlay. […]

CD44-v 3 = conditions: HTM cells exposed to supplemental T3 for 18 hours
Method: as §1, §2

[3] = system: Normal pigmented Dutch rabbits
HTM cells [4] = conditions: 10^−7M
Method: The assay system visualizes the cell's extracellular matrix by taking advantage of its ability to exclude added formalized red blood cells from an area around the cell. Proteoglycan monomer and HA are added to the cells in excess as pericellular matrix assembly is observed by microscopy.
HTM cells were plated on 35-mm dishes at a density of 1×10^4 cells per plate. […] For exogenous matrix assembly, cells were then incubated for 3 hours at 37° C. with 3.0 mg/ml of aggregating proteoglycan monomer (purified from rat chondrosarcoma tumor (Ref. 1)) and 15 μg/ml of hyaluronan (grade 1, Sigma Chemical Co., St. Louis, Mo.). The medium was removed and 0.75 ml of a suspension of formaldehyde fixed red blood cells (1×10^8 cells/ml) in phosphate buffered saline with 0.1% bovine serum albumin was added to each well of cells. After 10 minutes the cells and extracellular matrices (ECMs) were observed visualized by phase contrast microscopy (REF 2, 3). The cell matrices were categorized into one of three groups. Cells having no coats have no visible ECM. Cells having small coats have a visible ECM that extends less than the width of the cell's nucleus out from the cell's plasma membrane. Cells having large coats have a visible ECM that extends greater than the width of the cell's nucleus out from the cell's plasma membrane.

3,3′-5-triiodo-L-thyronine [T3]
fold reduction in secreted HA concentration (HTM cells [1]; 10^−7 M, confluent cells, day 5, vs control cultures): 2.95 fold
reduction in HA secretion (HTM cells [1]; day 2, FIG. 1): 57%
reduction in HA secretion (HTM cells [1]; day 4, FIG. 1): 66%
T3 concentration of maximal inhibition of HA production (HTM cells [1]; cultured HTM cells, FIG. 2): 10^−7-10^−6 M
reduction of HA concentration in the media, non-confluent vs confluent treated cells (HTM cells [1]; non-confluent (less than 75% confluent) cells): even greater reduction
EC50 (HTM cells [1]; read-out: half maximal concentration for reduction of HA concentration, confluent cells, dose response curve FIG. 2): ~5 nM
fold increase in secreted hyaluronidase activity (HTM cells [2]): 1.9 fold
expression of CD44E isoform (CD44E): dramatic reduction
expression of CD44-v 3 isoform (CD44-v 3): dramatic reduction
decrease in IOP within three weeks of administration ([3]; five rabbits): at least some detectable decrease in IOP
largest decrease in IOP after three weeks of T3 administration ([3]; one rabbit): 25%
fold greater number of cells with no coats than cells grown in the absence of T3 (HTM cells [4]; 2 days): ~2 fold
fold greater number of cells with no coats than cells grown in the absence of T3 (HTM cells [4]; 4 days): more than 4 fold
